In test [1] the target is T1, 20S proteasome extracted from rat liver (PGPH) (Rattus norvegicus, UniProt P28073+Q9JHW0).
T1 construct: 20S proteasome extracted from rat liver; from tissue; host or cells: rat liver
As to the kind of experiment: inhibition of 20S proteasome, PGPH activity (fluorescent peptide). It is filed as biochemical. As to conditions: rat liver 20S proteasome, 37° C., 1 h, read-out: inhibition rates (%) PGPH. On the procedure: (§1) 1 μg of 20S proteasome extracted from rat liver was incubated with a 100 μL solution containing various concentrations of the present compounds, 50 μM fluorescent peptides and 20 mM Tris-HCl at 37° C. for 1 h, respectively. […] 0.1% DMSO was used as a solvent control. Compared with the fluorescence of solvent control, an inhibition rate or IC50 value was calculated.

Test [2] deals with T2, 20S proteasome extracted from rat liver (T-L) (Rattus norvegicus, UniProt P40112+Q9JHW0).
T2 construct: 20S proteasome extracted from rat liver; from tissue; host or cells: rat liver
As to the kind of experiment: inhibition of 20S proteasome, T-L activity (fluorescent peptide). It is filed as biochemical. As to conditions: rat liver 20S proteasome, 37° C., 1 h, read-out: inhibition rates (%) T-L. On the procedure:
as §1

For test [3], the system named is Hela, human cervical carcinoma. The test can be described thus: preliminary anti-tumor screening in vitro, MTT method. Format: cell-based. The settings on record: read-out: inhibition rates (%) Hela. The protocol: (§2) The test methods used in this test example are routine methods for anti-tumor activities test in pharmaceutical area, for example, referring to the following reference: (J. Immunol Method, 1983, 65, 55).
(§3) Test models: A: MTT method (Hela, human cervical carcinoma); B: SRB method (BGC-823, […]); C: SRB method (MCF-7, breast cancer); D: SRB method (A549, human lung cancer); E: SRB method (PC3M1E8, prostate cancer).
(§4) Inhibition rates of the compounds were measured under concentrations of 0.1 μM, 1 μM or 10 μM.
A general note: Tetrazolium dyes change colour on reduction, which living cells bring about.

The test system of a further test is MCF-7, breast cancer. As to the kind of experiment: preliminary anti-tumor screening in vitro, SRB method. The settings on record: Homo sapiens, read-out: inhibition rates (%) MCF-7; for inhibition at 0.1 µM: MCF7, 0.1 μM; for inhibition at 1 µM: MCF7, 1 μM; for inhibition at 10 µM: MCF7, 10 μM. Format: cell-based. The protocol:
as §2, §3, §4

In the next test the test system is BGC-823, liver cancer. Described as above. As to conditions: Homo sapiens, read-out: inhibition rates (%) BGC-823. It is filed as cell-based. The protocol:
as §2, §3, §4

In the next test the test system is A549, human lung cancer. The description is as above. Format: cell-based. As to conditions: read-out: inhibition rates (%) A549. On the procedure:
as §2, §3, §4

In test [4] the target is T3, 20S proteasome extracted from rat liver (CT-L) (Rattus norvegicus, UniProt P18421+P28075).
T3 construct: 20S proteasome extracted from rat liver; from tissue; host or cells: rat liver
The test can be described thus: inhibition of 20S proteasome, CT-L activity (fluorescent peptide). Format: biochemical. The settings on record: rat liver 20S proteasome, 37° C., 1 h, read-out: inhibition rates (%) CT-L. On the procedure: as §1

Results on six compounds are retold here after patent publication US10494384B2, “Urea peptoid boric acid compound, pharmaceutical composition thereof, preparation method therefor, and uses thereof” (Peking University, priority 2015, dated 2019).

The term inhibition denotes the relative decrease from the control value, in per cent. Regarding `COc1ccc(NC(=O)[C@H](Cc2ccccc2)NC(=O)N[C@@H](CC(C)C)B(O)O)cc1` [Example 8, N-L-leucine borate-N′-(p-methoxy-phenylcarbamoyl)-L-phenylalanine-urea], the inhibition at 0.2 µM in test [1] is 1.62%; in test [2], -1.39%; in test [4] it was 2.87%. For the same compound, the inhibition at 2 µM in test [1] came to 7.36%; in test [2], 9.32%; in test [4], 59.7%. In addition, the inhibition at 20 µM in test [1] worked out at 63.1%; in test [2], 30.6%; in test [4], 89.4%. Besides, the inhibition at 0.1 µM in test [3] came out at 12.7%; in the test with MCF-7, breast cancer, 4.54%; in the test on BGC-823, liver cancer, 4.74%; with A549, human lung cancer, 1.01%. Also, the inhibition at 1 µM in test [3] amounted to 13.4%; with MCF-7, breast cancer it was 8.51%; in the test on BGC-823, liver cancer it was 5.62%; in the test with A549, human lung cancer, 8.26%. For the same compound, the inhibition at 10 µM in test [3] is 32.9%; in the test with MCF-7, breast cancer it was 16.4%; in the test on BGC-823, liver cancer it was 15.6%; in the test with A549, human lung cancer, 39.2%.

`CC(C)C[C@H](NC(=O)N[C@H](Cc1ccccc1)C(=O)Nc1cnccn1)B(O)O` [Example 10, N-L-leucine borate-N′-(pyrazin-2-ylcarbamoyl)-D-phenylalanine-urea]: the results for the inhibition at 0.2 µM in test [1], in test [2] and in test [4] were 19%, -12.3% and -4.19%, respectively. The inhibition at 2 µM in test [1] was 79.8%; in test [2], -5.93%; in test [4], 47.8%. Moreover, the values for the inhibition at 20 µM in test [1], in test [2] and in test [4] were 96%, 17.4% and 89%, respectively. Also, the inhibition at 0.1 µM in test [3] was 11.8%; in the test on MCF-7, breast cancer, 8.1%; in the test with BGC-823, liver cancer, 4.44%; in the test on A549, human lung cancer it was 3.45%. Besides, the inhibition at 1 µM is 14.8% in test [3]; 12.7% in the test on MCF-7, breast cancer; 7.38% with BGC-823, liver cancer; 14.6% in the test on A549, human lung cancer. The inhibition at 10 µM in test [3] stood at 27%; in the test on MCF-7, breast cancer, 16%; in the test with BGC-823, liver cancer, 16.4%; with A549, human lung cancer, 25%.

For the compound `CC(C)C[C@H](NC(=O)N[C@@H](CC(C)C)C(=O)N[C@@H](CC(C)C)C(=O)Nc1cnccn1)B(O)O` [Example 11, N-L-leucine borate-N′-(pyrazin-2-ylcarbamoyl)-L-leucyl-L-leucine-urea], the inhibition at 0.2 µM in test [1] was 12.8%; in test [2], -8.06%; in test [4], 5.79%. In addition, the inhibition at 2 µM in test [1] is 32.6%; in test [2] it was -5.63%; in test [4], 52.8%. Besides, the inhibition at 20 µM in test [1] is 81%; in test [2] it was 25.2%; in test [4], 92.5%. The inhibition at 0.1 µM was 2.45% in test [3]; 4.81% in the test with MCF-7, breast cancer; 6.32% with BGC-823, liver cancer; -4.49% with A549, human lung cancer. For the same compound, the inhibition at 1 µM in test [3] worked out at 6.1%; with MCF-7, breast cancer it was 7.23%; in the test with BGC-823, liver cancer, 4.58%; in the test on A549, human lung cancer it was 0.81%. The inhibition at 10 µM in test [3] was 19.2%; in the test with MCF-7, breast cancer, 16.1%; in the test with BGC-823, liver cancer, 13.1%; in the test on A549, human lung cancer it was 26.6%.

On to `CC(C)C[C@H](NC(=O)N[C@@H](Cc1ccccc1)C(=O)N[C@@H](CC(C)C)C(=O)Nc1cnccn1)B(O)O` [Example 12, N-L-leucine borate-N′-(pyrazin-2-ylcarbamoyl)-L-leucyl-L-phenylalanine-urea], for which the results for the inhibition at 0.2 µM in test [1], in test [2] and in test [4] were 9.76%, -7.93% and 63.3%, respectively. Moreover, the results for the inhibition at 2 µM in test [1], in test [2] and in test [4] were 73.2%, 34.7% and 93.4%, respectively. In addition, the inhibition at 20 µM in test [1] is 96.7%; in test [2] it was 67.8%; in test [4], 95.8%. The inhibition at 0.1 µM in test [3] came to 12%; in the test on MCF-7, breast cancer, 1.77%; with BGC-823, liver cancer it was 6.01%; with A549, human lung cancer it was 1.55%. Further, the inhibition at 1 µM in test [3] was 35%; in the test on MCF-7, breast cancer it was 26.3%; in the test on BGC-823, liver cancer it was 36.3%; in the test with A549, human lung cancer, 45.5%. The inhibition at 10 µM in test [3] worked out at 46%; in the test on MCF-7, breast cancer, 50.8%; in the test on BGC-823, liver cancer, 50.2%; in the test on A549, human lung cancer, 69.7%.

With `CC(C)C[C@H](NC(=O)N[C@@H](Cc1ccccc1)C(=O)N[C@@H](CC(C)C)C(=O)Nc1cnccn1)B1OC(C)(C)C(C)(C)O1` [Example 13, N-L-leucine borate pinacol ester-N′-(pyrazin-2-ylcarbamoyl)-L-leucyl-L-phenylalanine-urea], the values for the inhibition at 0.2 µM in test [1], in test [2] and in test [4] were 5.28%, -3.11% and 45.4%, respectively. Besides, the inhibition at 2 µM in test [1] is 53.4%; in test [2] it was 13.8%; in test [4] it was 91.3%. The inhibition at 20 µM in test [1] worked out at 96.8%; in test [2] it was 49.4%; in test [4] it was 95.4%. In addition, the inhibition at 0.1 µM in test [3] was 7.02%; in the test with MCF-7, breast cancer, -3.69%; with BGC-823, liver cancer, 3.66%; in the test with A549, human lung cancer, -9.11%. Also, the inhibition at 1 µM in test [3] amounted to 20.2%; in the test with MCF-7, breast cancer, 8.39%; in the test on BGC-823, liver cancer, 17.8%; in the test on A549, human lung cancer, 23.5%. Moreover, the inhibition at 10 µM in test [3] was 37.7%; with MCF-7, breast cancer, 20%; with BGC-823, liver cancer it was 40%; in the test with A549, human lung cancer, 50.5%.

For the compound `CC(C)C[C@H](NC(=O)[C@H](Cc1ccccc1)NC(=O)Nc1cccc(OCc2ccccc2)c1)B(O)O` [Example 16, N-L-phenylalanyl-L-leucine borate-N′-(3-benzyloxy-phenylamine)-urea], the inhibition at 0.2 µM was -14.4% in test [1], -2.89% in test [2] and -14.6% in test [4]. The results for the inhibition at 2 µM in test [1], in test [2] and in test [4] were -2.93%, 12.3% and 86.6%, respectively. For the same compound, the results for the inhibition at 20 µM in test [1], in test [2] and in test [4] were 92.4%, 62.2% and 94.5%, respectively. Moreover, the inhibition at 0.1 µM is 9.91% in test [3]; 6.62% in the test with MCF-7, breast cancer; 6.01% in the test on BGC-823, liver cancer; 5% in the test with A549, human lung cancer. For the same compound, the inhibition at 1 µM in test [3] amounted to 34.1%; with MCF-7, breast cancer, 27.2%; with BGC-823, liver cancer it was 34%; in the test with A549, human lung cancer, 36.2%. Moreover, the inhibition at 10 µM in test [3] stood at 39.6%; in the test with MCF-7, breast cancer, 51.4%; with BGC-823, liver cancer it was 48.7%; in the test on A549, human lung cancer, 65%.
